We go through four molecules from patent publication US8592161B2, “Mutational profiles in HIV-1 protease correlated with phenotypic drug resistance” (Janssen R&D Ireland, priority 2002, dated 2013).

Like-named read-outs stand apart in the source and are kept apart here.

Type in all cases: cell-based
For one experiment, the system named is HIV-1/LAI. Kind of experiment: In vitro antiviral activity in acutely infected MT4 cells, wild type. The following applies: read-out: median EC50. The procedure:
(§1) Determination of the antiviral activity of a compound was done as described in Pauwels R. et al. (J Virol Methods 1988; 20(4):309-21). Various concentrations of the test compounds were brought into each well of a flat-bottom microtiter plate. Subsequently, HIV and MT4 cells were added to a final concentration of 200-250 50% cell culture infectious doses (CCID50)/well and 30,000 cells/well, respectively. After 5 days of incubation (37° C., 5% CO2), the cytopathic effect of the replicating virus was determined by the tetrazolium colorimetric MTT method. The dose protecting 50% of the cells from virus cytopathic effect was defined as the EC50, while the dose achieving 90% protection was defined as the EC90.
(§2) MT4-LTR-EGFP cells were infected at a multiplicity of infection (MOI) of 0.01 to 0.001 CCID50/cell in the presence of inhibitor. The starting concentration of the inhibitor was two to tee times the EC50, a suboptimal concentration. The cultures were sub-cultivated and scored microscopically on virus-induced fluorescence and cytopathicity every 3-4 days. The cultures were sub-cultivated in the presence of the same compound concentration until signs of virus replication were observed. The escaping virus was further cultivated in the presence of the same inhibitor concentration in order to enrich the population in resistant variants. If full virus breakthrough was observed the supernatant was collected and stored (new virus strain). Afterwards, the same virus was challenged with a higher compound concentration in order to select variants able to grow in the presence of as high as possible inhibitor concentrations. From the new viruses, a virus stock was grown in the absence of inhibitor.
(§3) In vitro drug selection experiments starting from wild-type HIV-1 under pressure of compound 1, compound 2, and Nelfinavir (NFV) have been performed. Tables 1, 2, 3, 4, and 5 show the genotypic and phenotypic characterization of the selected strains.

Experiment [1] concerns HIV-1 strain selected with Comp 1 (20 nM, 94 days), protease R41G/R V82V/I. Kind of experiment: In vitro antiviral activity in acutely infected MT4 cells, selected strain. The following applies: for EC50: Human immunodeficiency virus 1, Table 4, strain R41G/R V82V/I (Comp 1 20 nM, 94 days), read-out: median EC50. The procedure: as §1, §2, §3
For experiment [2], the system named is HIV-1 strain selected with Comp 1 (40 nM, 161 days), protease R41G V82I. The description is as above. Particulars: for EC50: Human immunodeficiency virus 1, Table 4, strain R41G V82I (Comp 1 40 nM, 161 days), read-out: median EC50. On the procedure:
as §1, §2, §3

The test system of experiment [3] is HIV-1 strain selected with Comp 1 (40 nM, 175 days), protease R41G V82I. Described as above. The following applies: for EC50: Human immunodeficiency virus 1, Table 4, strain R41G V82I (Comp 1 40 nM, 175 days), read-out: median EC50. On the procedure:
as §1, §2, §3

The subject of experiment [4] is HIV-1/LAI strain selected with Comp 1 (100 nM, 139 days), protease S37S/N R41R/K K70E. The description is as above. Particulars: for EC50: Human immunodeficiency virus 1, Table 2, strain S37S/N R41R/K K70E (Comp 1 100 nM, 139 days), read-out: median EC50. The procedure:
as §1, §2, §3

For experiment [5], the system named is HIV-1/LAI strain selected with Comp 1 (100 nM, 195 days), protease S37N R41S K70E. The description is as above. The following applies: for EC50: Human immunodeficiency virus 1, Table 2, strain S37N R41S K70E (Comp 1 100 nM, 195 days), read-out: median EC50. The procedure:
as §1, §2, §3

In experiment [6] the test system is HIV-1/LAI strain selected with Comp 1 (200 nM, 328 days), protease S37N R41S K70E. The description is as above. Particulars: for EC50: Human immunodeficiency virus 1, Table 2, strain S37N R41S K70E (Comp 1 200 nM, 328 days), read-out: median EC50. The procedure:
as §1, §2, §3

The test system of experiment [7] is HIV-1/LAI strain selected with Comp 1 (30 nM, 70 days), protease K70E. Described as above. The following applies: for EC50: Human immunodeficiency virus 1, Table 2, strain K70E (Comp 1 30 nM, 70 days), read-out: median EC50. The procedure:
as §1, §2, §3

Experiment [8] concerns HIV-1/LAI strain selected with Compound 1 (100 nM, 188 days), protease R41T K70E. The experiment is described as above. Particulars: for EC50: Human immunodeficiency virus 1, Table 1, strain R41T K70E (Compound 1 100 nM, 188 days), read-out: median EC50. The procedure:
as §1, §2, §3

Experiment [9] concerns HIV-1/LAI strain selected with Compound 1 (30 nM, 45 days), protease R41T. The description is as above. The following applies: for EC50: Human immunodeficiency virus 1, Table 1, strain R41T (Compound 1 30 nM, 45 days), read-out: median EC50. The procedure:
as §1, §2, §3

In experiment [10] the test system is HIV-1/LAI strain selected with Compound 1 (100 nM, 97 days), protease R41T K70E. The description is as above. The following applies: for EC50: Human immunodeficiency virus 1, Table 1, strain R41T K70E (Compound 1 100 nM, 97 days), read-out: median EC50. The procedure:
as §1
as §2, with “The cultures were sub-cultivated in the presence of the same compound concentration until signs of virus replication were observed.” left out, “Afterwards, the same virus was challenged with a higher compound concentration in order to select variants able to grow in the presence of as high as possible inhibitor concentrations.” left out

The subject of experiment [11] is HIV-1 starting strain of Table 4 (no compound, no mutations). Kind of experiment: In vitro antiviral activity in acutely infected MT4 cells, starting strain. Particulars: for EC50: Human immunodeficiency virus 1, starting strain HIV-1, no compound, read-out: median EC50. The procedure:
as §1, §2, §3

The subject of experiment [12] is HIV-1/LAI strain selected with Compound 2 (100 nM), protease R41I; Table 3. Nature of the experiment: In vitro antiviral activity in acutely infected MT4 cells, selected strain. The following applies: Human immunodeficiency virus 1, R41I strain selected with Compound 2 100 nM (head lists 116, 200, 264 days; assignment unclear), read-out: median EC50. On the procedure:
as §1, §2, §3

Experiment [13] has as its system HIV-1/LAI strain selected with Compound 2 (100 nM), protease R41I. The description is as above. The following applies: Human immunodeficiency virus 1, Table 3, R41I strain selected with Compound 2 100 nM (head lists 116, 200, 264 days; assignment unclear), read-out: median EC50. On the procedure:
as §1
as §2, with “The cultures were sub-cultivated in the presence of the same compound concentration until signs of virus replication were observed.” left out, “Afterwards, the same virus was challenged with a higher compound concentration in order to select variants able to grow in the presence of as high as possible inhibitor concentrations.” left out

The subject of experiment [14] is HIV-1/LAI strain selected with NFV (1000 nM, 35 days), protease D30N M46I. The experiment is described as above. The following applies: Human immunodeficiency virus 1, Table 5, strain D30N M46I (NFV 1000 nM, 35 days), read-out: median EC50. On the procedure: as §1, §2, §3
In experiment [15] the test system is HIV-1/LAI strain selected with NFV (3000 nM, 69 days), protease L10F D30N M46I V77I I85V/I N88D/N. The experiment is described as above. The following applies: Human immunodeficiency virus 1, Table 5, strain L10F D30N M46I V77I I85V/I N88D/N (NFV 3000 nM, 69 days), read-out: median EC50. On the procedure:
as §1, §2, §3

For experiment [16], the system named is HIV-1/LAI strain selected with NFV (9000 nM, 11l days), protease L10F D30N R41R/K K45I/K M46I V77I I84V/I I85V/I N88D. The description is as above. The following applies: Human immunodeficiency virus 1, Table 5, strain L10F D30N R41R/K K45I/K M46I V77I I84V/I I85V/I N88D (NFV 9000 nM, 11l days), read-out: median EC50. The procedure:
as §1, §2, §3

For experiment [17], the system named is HIV-1/LAI strain selected with NFV (9000 nM, 140 days), protease L10F D30N R41R/K K45I/K M46I V77I I84V N88D. The description is as above. Particulars: Human immunodeficiency virus 1, Table 5, strain L10F D30N R41R/K K45I/K M46I V77I I84V N88D (NFV 9000 nM, 140 days), read-out: median EC50. The procedure: as §1, §2, §3
[18] abbreviates: Human immunodeficiency virus 1, MT4, Table 1, wild-type HIV/LAI.
[19] abbreviates: Human immunodeficiency virus 1, MT4, Table 2, wild-type HIV-1/LAI.
[20] abbreviates: Human immunodeficiency virus 1, MT4, Table 4, wild-type HIV-1/LAI.
The mark [21] stands for this setting: Human immunodeficiency virus 1, MT4, Table 3, wild-type HIV-1/LAI.
The mark [22] stands for this setting: Human immunodeficiency virus 1, MT4, Table 5, wild-type HIV-1/LAI.

For `CC(C)CN(C[C@@H](O)[C@H](Cc1ccccc1)NC(=O)O[C@H]1CO[C@H]2OCC[C@H]21)S(=O)(=O)c1ccc(N)cc1` [Compound 1, Carbamic acid, [(1S,2R)-3-[[(4-aminophenyl)sulfonyl](2-methylpropyl)amino]-2-hydroxy-1-(phenylmethyl)propyl]-, (3R,3aS,6aR)-hexahydrofuro[2,3-b]furan-3-yl ester], the concentration for a half-maximal effect (EC50) (usually the concentration at which the effect is half-maximal) with HIV-1/LAI (setting [18]) stood at 3.2 nM; with HIV-1/LAI (setting [19]), 2.6 nM; in the experiment on HIV-1/LAI (setting [20]), 2.6 nM; in [1], 1.1 nM; in [2], 2.6 nM; in experiment [3] it was 1.9 nM. Further, the EC50 in experiment [4] came out at 2.5 nM; in [5], 4.7 nM; in experiment [6] it was 0.4 nM; in experiment [7] it was 6.5 nM; in experiment [8], 44 nM; in [9] it was 7.7 nM. Besides, the 50% effective concentration (EC50) in [10] is 26 nM; in experiment [11], 3.4 nM. Besides, the “median FC (fold change in EC50 as compared to wild type)” value in experiment [1] (Table 4, strain R41G/R V82V/I (Comp 1 20 nM, 94 days)) came out at 0; in experiment [2] (Table 4, strain R41G V82I (Comp 1 40 nM, 161 days)), 1; in [3] (Table 4, strain R41G V82I (Comp 1 40 nM, 175 days)), 1; in experiment [4] (Table 2, strain S37S/N R41R/K K70E (Comp 1 100 nM, 139 days)) it was 1; in [5] (Table 2, strain S37N R41S K70E (Comp 1 100 nM, 195 days)), 2; in experiment [6] (Table 2, strain S37N R41S K70E (Comp 1 200 nM, 328 days)), 0.2. Also, the “median FC (fold change in EC50 as compared to wild type)” value was found to be 3 in experiment [7] (Table 2, strain K70E (Comp 1 30 nM, 70 days)); 10 in experiment [8] (Table 1, strain R41T K70E (Compound 1 100 nM, 188 days)); 2 in [9] (Table 1, strain R41T (Compound 1 30 nM, 45 days)); 8 in experiment [10] (Table 1, strain R41T K70E (Compound 1 100 nM, 97 days)); 1 in [11] (starting strain HIV-1, no compound).
For the molecule `CC(C)CN(C[C@@H](O)[C@H](Cc1ccccc1)NC(=O)O[C@H]1CO[C@H]2OCC[C@H]21)S(=O)(=O)c1ccc2nc(NCCN3CCCC3)sc2c1` [Compound 2], the concentration giving a half-maximal response (EC50) turned out to be 12 nM in the experiment on HIV-1/LAI (setting [21]), 6.9 nM in [12] and 61 nM in [13].
On to `Cc1cccc(C)c1OCC(=O)N[C@@H](Cc1ccccc1)[C@@H](O)C[C@H](Cc1ccccc1)NC(=O)[C@H](C(C)C)N1CCCNC1=O` [Lopinavir], for which the 50% effective concentration (EC50) in the experiment with HIV-1/LAI (setting [18]) was found to be 7.9 nM; in the experiment on HIV-1/LAI (setting [19]) it was 4.6 nM; in the experiment on HIV-1/LAI (setting [21]) it was 4.6 nM; in the experiment with HIV-1/LAI (setting [20]), 4.6 nM; in the experiment on HIV-1/LAI (setting [22]), 4.6 nM; in experiment [1], 2 nM. In addition, the EC50 in experiment [2] came out at 1.8 nM; in experiment [3], 1 nM; in experiment [4], 2.8 nM; in experiment [5], 3.9 nM; in experiment [6] it was 1.1 nM; in [7] it was 17 nM. Also, the EC50 is 47 nM in [8]; 27 nM in experiment [9]; < 0.9 nM in experiment [12]; 7.7 nM in experiment [14]; 24 nM in experiment [15]; 39 nM in experiment [16]. Besides, the values for the EC50 in [17], in [13] and in experiment [11] were 56 nM, 18 nM and 6.8 nM, respectively.
`CC(C)c1nc(CN(C)C(=O)N[C@H](C(=O)N[C@@H](Cc2ccccc2)C[C@H](O)[C@H](Cc2ccccc2)NC(=O)OCc2cncs2)C(C)C)cs1` [Ritonavir]: the EC50 in the experiment on HIV-1/LAI (setting [18]) was determined as 31 nM; with HIV-1/LAI (setting [19]), 33 nM; in the experiment on HIV-1/LAI (setting [21]) it was 33 nM; with HIV-1/LAI (setting [20]), 33 nM; with HIV-1/LAI (setting [22]), 33 nM; in experiment [1], 4.2 nM. The 50% effective concentration (EC50) in [2] was 6.3 nM; in [3], 1.7 nM; in experiment [4], 22 nM; in experiment [5], 14 nM; in experiment [6], 31 nM; in experiment [7], 47 nM. For the same molecule, the concentration for a half-maximal effect (EC50) in experiment [8] is 46 nM; in [9], 32 nM; in experiment [12], 22 nM; in experiment [14] it was 19 nM; in [15], 27 nM; in experiment [16], 86 nM. Also, the EC50 in [17] came out at 170 nM; in experiment [10], 21 nM; in [11], 22 nM.
